Data on two compounds can be found in US5128244A, “Assay for dioxins” (Wisconsin Alumni Research Foundation, priority 1989, dated 1992).

Data set [1] addresses T1, Ah receptor (Mus musculus, UniProt P30561).
T1 construct: full-length receptor (C57BL/6J carries Ahr b-1 allele)
T1 sequence (P30561 10-848): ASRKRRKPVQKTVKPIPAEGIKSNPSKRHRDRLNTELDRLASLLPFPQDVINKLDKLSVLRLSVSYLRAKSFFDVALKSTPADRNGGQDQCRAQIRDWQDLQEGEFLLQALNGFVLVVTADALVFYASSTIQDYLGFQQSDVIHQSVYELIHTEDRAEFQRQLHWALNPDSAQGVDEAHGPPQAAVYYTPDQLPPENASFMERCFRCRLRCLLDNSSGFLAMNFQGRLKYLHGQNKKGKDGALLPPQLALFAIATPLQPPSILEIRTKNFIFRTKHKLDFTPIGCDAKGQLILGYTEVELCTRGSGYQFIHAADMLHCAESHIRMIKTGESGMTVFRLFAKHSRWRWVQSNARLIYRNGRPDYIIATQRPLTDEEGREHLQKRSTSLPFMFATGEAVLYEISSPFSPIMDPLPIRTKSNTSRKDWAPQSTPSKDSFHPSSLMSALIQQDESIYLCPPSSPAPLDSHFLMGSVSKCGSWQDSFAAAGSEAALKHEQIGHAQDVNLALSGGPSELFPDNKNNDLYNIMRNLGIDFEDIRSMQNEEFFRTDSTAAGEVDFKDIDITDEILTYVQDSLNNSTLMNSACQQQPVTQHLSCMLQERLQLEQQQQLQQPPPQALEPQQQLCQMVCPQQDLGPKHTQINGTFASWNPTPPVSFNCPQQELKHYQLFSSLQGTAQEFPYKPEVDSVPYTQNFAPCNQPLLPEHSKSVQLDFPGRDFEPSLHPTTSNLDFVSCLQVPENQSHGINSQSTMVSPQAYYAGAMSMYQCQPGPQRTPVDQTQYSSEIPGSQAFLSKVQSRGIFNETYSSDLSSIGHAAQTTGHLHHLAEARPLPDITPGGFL
In words: Competitive binding assay of TCDD against [125I] radioligand for Ah receptor. On the set-up: species or system C57BL/6J mice. As for the experimental part: C57BL/6J mice were purchased from The Jackson Laboratory, Bar Harbor, Me., and bred in our laboratory. See generally A. Poland et al., 261 J. Biol. Chem. 6352-65 (May 15, 1986) (not prior art). One-hundred adult male and female mice were killed by cervical dislocation, their livers removed, rinsed with ice cold KCl (150 mM), homogenized in 9 vol of MSSENG buffer, and centrifuged at 10,000 xg for 20 min at 4° C. The post-mitochondrial supernatant was carefully removed to avoid contamination by the surface lipid layer, and subjected to centrifugation at 105,000 x g. The supernatant (approx. 10 mg protein/ml) was separated from surface lipids and the microsomal pellet, and stored at -80° C. until processed further.
The frozen cytosolic fraction was thawed, and placed in an ice bath with slow stirring. A saturated solution of ammonium sulfate in MEN buffer was added to the cytosolic preparation, to a final concentration of 40%, over a period of 30 min, and stirred for an additional 30 min. The solution was centrifuged at 10,000 x g for 20 min, the supernatant fraction removed, slowly brought to an ammonium sulfate concentration of 55%, stirred for an additional 30 min, centrifuged at 10,000xg, and the supernatant discarded. The 40-55% ammonium sulfate precipitate was resuspended in 55% ammonium sulfate in MN, and aliquots equivalent to 0.5 g wet weight of liver (15 mg protein) were placed in 12×75 mm borosilicate tubes (VWR Scientific, San Francisco, Calif.), and spun at 5000xg. […]
The assay was terminated by the addition of a 0.5 ml of suspension of charcoal/gelatin (3%/0.3%) in MN buffer with vigorous stirring on a vortex mixer for 3 sec., and incubated for 10 min at 4° C. […] A one ml aliquot of the supernatant fraction of each tube was transferred to 12×75 […] polypropylene tubes (VWR Scientific, San Francisco, CA), and the Ah bound radioligand quantified in a MINAXI Series-5000 gamma scintillation counter (United Technologies/Packard Instrument Co., Downer Grove, Ill.). […]

Data set [2] has as its target T1, Ah receptor. In words: Radioligand stock solution aged 120 days, tested in the Ah receptor binding assay. The arrangement: species or system C57BL/6J mice. The settings on record: stock solution of radioligand 120 days after its synthesis. An excerpt: [^125 I]decays to tellurium with a half-life of 60 days. Thus, radiodecay could produce unlabelled 2,3-dibromodibenzo-p-dioxin in the radioligand stock solution. We tested whether radioligand decay products might compete for receptor binding and diminish radioligand binding.

As for `Clc1cc2c(cc1Cl)Oc1cc(Cl)c(Cl)cc1O2` [TCDD, 2,3,7,8-tetrachloro-dibenzo-p-dioxin], the figures for the “minimal detectable amount of TCDD” value on Ah receptor [1] (1 ml assay) and at Ah receptor [1] (total assay volume reduced to 0.25 ml) were 3.2 pg and 0.8 pg, respectively. Also, on Ah receptor [1] (1 ml assay, statistical analysis of standard curve of specifically bound radioligand v. log concentration of competing TCDD), the “minimal detectable concentration of TCDD” value was found to be 10 pM.
With `Brc1cc2c(cc1Br)Oc1cc([125I])ccc1O2` [radioligand, [^125 I]-2-iodo-7,8-dibromo-dibenzo-p-dioxin], the “deviation in the quality control parameters compared to freshly prepared radioligand” value at Ah receptor [2] is “no significant deviation”.
